Laboratory results: PMC4467461, “Small-molecule activation of SERCA2a SUMOylation for the treatment of heart failure” (Nature Communications, 2015)

Test system: mouse heart tissue (sham and TAC)
Experiment: Molecular analysis of heart tissue of N106-infused mice (western blot, immunoprecipitation, ATPase activity)
Assay type: in vivo
Protocol: Protein extracts (20∼50 μg) were obtained from isolated cardiomyocytes, which was lysed in RIPA buffer (R&D Systems Inc., MN, USA) contained protease inhibitors (Complete mini, Roche Diagnostics, IN, USA) and 20 mM NEM (Sigma-Aldrich). For SERCA2a SUMOylation assays, cardiac protein extracts were immunoprecipitated with a SUMO-1 agarose resin (Santa Cruz Biotechnology Inc., CA, USA) for overnight at 4 °C. The resins were washed with cold lysis buffer three times. The immunocomplexes were then resolved by SDS–PAGE and western blot analysis was performed using a SERCA2a-specific antibody. For general western blotting, cardiac proteins (10∼50 μg) were separated on SDS–PAGE gel, transferred to nitrocellulose membrane (Bio-Rad, CA, USA) and blotted with the following primary antibodies: SUMO-1 (1:1,000, R&D Systems Inc.), Ubc9 (1:1,000, R&D Systems Inc.), SAE2 (1:1,000, Abcam Inc., MA, USA), SERCA2a (1:3,000, 21st Century Biochemicals, MA, USA), PLN (1:5,000, Badrilla Ltd., UK), PLN phosphorylation at serine-16 (1:5,000, Badrilla Ltd.), RyR2 (1:5,000, Abcam Inc.), NCX (1:1,000, Novus Biologicals, CO, USA), glyceraldehyde 3-phosphate (1:10,000, Sigma-Aldrich), GATA4 (1:1,000, Millipore, NY, USA) and Sp1 (1:500, Millipore). Secondary antibodies anti-mouse IgG-HRP (1:10,000) and anti-rabbit IgG-HRP (1:10,000) were purchased from Sigma-Aldrich. The immunoreactive bands were visualized by a supersignal chemiluminescence detection reagent (Pierce Biotechnology, IL, USA). Full scans of western blots are presented in Supplementary Fig. 14.
SERCA2a ATPase activity was determined using a coupled enzymes assay including pyruvate kinase/lactate dehydrogenase/NADH-coupled reactions. Microsomes were enriched by differential density centrifugation. The cardiac cells and tissues were homogenized on ice in homogenization buffer (250 mM sucrose (Sigma-Aldrich), 5 mM HEPES pH7.0 (Sigma-Aldrich), 1 mM phenylmethyl sulfonyl fluoride (Sigma-Aldrich), protease inhibitor cocktail (Roche Life Science, IN, USA)). The homogenates were centrifuged at 1,000g for 10 min at 4 °C, then the supernatants were collected and centrifuged at 12,000g for 15 min at 4 °C. The supernatants were transferred to ultracentrifuge tubes and centrifuged for 1 h at 140,000g at 4 °C (Optima XE-100, Beckman Coulter). The pellets were resuspended in homogenization buffer to determine protein concentration and calcium-dependent ATPase activity assay. Protein concentration was measured with a 2-D Quant Kit (GE Healthcare Life Sciences, PA, USA). The ATPase activity were measured at 25 °C in 50 mM MOPS (Boston Bioproducts, MA, USA), 100 mM KCl (Boston Bioproducts), 5 mM MgCl2 (Boston Bioproducts), 1 mM EDTA (Boston Bioproducts) at pCa 5.0 by using a coupled enzyme system consisting of pyruvate kinase and lactate dehydrogenase, and monitoring the oxidation of the reduced form of NADH at […].
Supplementary Figure 9. Molecular analysis in N106 treated mice. (a-d) Representative western blots and protein quantification of select cardiac proteins. Mice heart tissue samples were obtained after external jugular vein infusion with vehicle or 10 mg.kg-1of N106 from sham and TAC mice. The experiments shown are representative of three independent Western blots with […]
(also on this page, place not known: TACSham TACSham TACSham SUMO-1 Conjugates (relative fold) N106Vehicle TACSham Veh RyR2/GAPDH (relative fold)Vehicle N106Vehicle Veh TACSham Veh 0.5 NCX/GAPDH (relative fold) NSNS N106Vehicle N106Vehicle N106Vehicle 200ATPase activity (% of control)Vehicle N106Vehicle TAC PLN/GAPDH (relative fold) P-PLN/PLN (relative fold) MW) […]
similar results. (e) The enzyme activity of SERCA2a was determined by using the same set of heart tissue samples. (f) SUMO-1 conjugate was measured by Western blot analysis with an anti-SUMO-1 antibody. Band intensity was quantified by Image J software. The amount of GAPDH was used as a normalization control. […]

COc1ccc(-c2nnc(Nc3nc4c(OC)cccc4s3)o2)cc1 [Compound N106, N-(4-methoxybenzo[d]thiazol-2-yl)-5-(4-methoxyphenyl)-1,3,4-oxadiazol-2-amine] was tested, and the “GATA4 SUMOylation and its protein levels” value (10 mg kg^−1) was “no significant effect”, the “protein levels of Sp1” value (10 mg kg^−1) was “not changed” and the SERCA2a protein levels (10 mg kg^−1 infusion) was “not significantly changed”. For the same molecule, the “protein levels and phosphorylation states of phospholamban” value (10 mg kg^−1 infusion) was “Neither protein levels nor phosphorylation states of phospholamban were changed”, the “protein levels of cardiac ryanodine receptor and sodium–calcium exchanger” value (10 mg kg^−1 infusion) was “not significant changes” and the “whole SUMO-1 conjugates” value (10 mg kg^−1 infusion) was “not significantly changed”. The “SUMOylated specificity protein 1 (Sp1) form” value (TAC heart, 10 mg kg^−1) was “significantly induced”, the “SUMOylation of SERCA2a versus vehicle control” value (TAC hearts, 10 mg kg^−1) was “significantly increased” and the “SERCA2a’s ATPase activity versus vehicle-treated hearts” value (TAC hearts, 10 mg kg^−1 (P=0.06)) was “somewhat higher”. The “SUMOylation of SERCA2a versus vehicle control” value (sham-operated group, 10 mg kg^−1 (P=0.07)) was “increasing trend”.
